Data on 12 compounds can be found in PMC2893881 (Bioorganic & medicinal chemistry, 2010).

Where two headings read alike, the source gives them in different places. Some results are limits rather than exact numbers.

Data set [1] relates to Jurkat cells (clone E6-1). The data set can be described thus: Jurkat cell cytotoxicity assay. The class given is cell-based. Conditions: for Selectivity Index = (IC50 Jurkat) / (IC50 T. brucei): Jurkat vs T. brucei; for IC50: read-out: IC50 (μM) Jurkat.
Another data set concerns the target TbCatB (Trypanosoma brucei, UniProt Q6R7Z5). The data set can be described thus: Cysteine protease inhibition assay, TbCatB. The class given is biochemical. Conditions: TbCatB 258 nM, Z-Phe-Arg-AMC 10 μM, pH 5.5.
Another data set deals with T. brucei brucei. The data set can be described thus: Trypanosoma brucei brucei growth inhibition assay. It is filed as cell-based. To be noted: bloodstream forms clone 427-221a, 40 hours, ATP-bioluminescence, ± standard deviation of the mean.
The target of another data set is rhodesain (Trypanosoma brucei rhodesiense, UniProt Q95PM0). The data set can be described thus: Cysteine protease inhibition assay, rhodesain. The class given is biochemical. To be noted: for IC50 (μM) Cysteine Protease rho (rhodesain): rhodesain 4 nM, Z-Phe-Arg-AMC 10 μM, pH 5.5.
In another data set the test system is patients. Conditions: clinical use, second stage sleeping sickness; cited from earlier work.
Data set [2] deals with human lung carcinoma (A549) cells. To be noted: at 1 μM; cited from earlier work.
A further data set relates to animals. To be noted: cited from earlier work.
[3] abbreviates: Jurkat cells, 40 hr, ATP-bioluminescence.

Turning to `CN1C(=O)[C@]23CC4=CC=C[C@H](O)[C@H]4N2C(=O)[C@@]1(CO)SS3` [Compound 10, gliotoxin, reference compound], the “IC50 (μM) Jurkat” value in data set [1] (setting [3]) is “substantial toxicity to mammalian cells”. Besides, the “Selectivity Index = (IC50 Jurkat) / (IC50 T. brucei)” value in data set [1] was “low ^g (Toxic to Jurkat cells at <1 μM)”. Besides, the “IC50 (μM) Cysteine Protease Tbc (TbcatB)” value against TbCatB is reported as “showed inhibition of TbCatB”. In the data set with T. brucei brucei, the “IC50 (μM) T. brucei” value is reported as “nanomolar activity”.
Regarding `COc1ccc2c3c([nH]c2c1)C(C=C(C)C)N1C(=O)C2CCCN2C(=O)C1(O)C3O` (stereo not drawn) [Compound 20, 12,13-dihydroxyfumitremorgin C], in data set [1] (Homo sapiens, Jurkat, 40 h), the concentration for half-maximal inhibition (IC50) came to 97.2 µM. Moreover, the “Selectivity Index = (IC50 Jurkat) / (IC50 T. brucei)” value in data set [1] is reported as > 15. In addition, at rhodesain, inhibition was half-maximal at 10.9 µM (IC50) and the “IC50 (μM) Cysteine Protease rho (rhodesain)” value (from here on “IC50 … (rhodesain)”) is “binds to rhodesain”. In the data set with T. brucei brucei, the “IC50 (μM) T. brucei” value is “trypanocidal in the low micromolar range”.
Take `CN1C(=O)[C@@]23C[C@]4([C@]56C[C@@]78SS[C@@](CO)(C(=O)N7[C@H]5Nc5ccccc56)N(C)C8=O)c5ccccc5N[C@@H]4N2C(=O)[C@]1(CO)SS3` [Compound 12, chaetocin]: the “IC50 (μM) Jurkat” value in data set [1] (setting [3]) is given as “substantial toxicity to mammalian cells”. In data set [1], the “Selectivity Index = (IC50 Jurkat) / (IC50 T. brucei)” value is “low (Toxic to Jurkat cells at <1 μM)”. In addition, the “IC50 (μM) T. brucei” value in the data set with T. brucei brucei is recorded as “nanomolar activity”.
Turning to `Nc1nc(N)nc(Nc2ccc([As]3SCC(CO)S3)cc2)n1` (stereo not drawn) [Compound 25, melarsoprol], in the data set on patients, the mortality rate entry is “approximately 5%”.
Turning to `CS[C@]1(CO)C(=O)N2[C@H]3C(=CC=C[C@@H]3OC(C)=O)C[C@@]2(SC)C(=O)N1C` [Compound 7, 6-acetylbis(methylthio)gliotoxin], the “Selectivity Index = (IC50 Jurkat) / (IC50 T. brucei)” value in data set [1] is > 15. The “IC50 … (rhodesain)” value against rhodesain is recorded as “binds to rhodesain”. In addition, the “IC50 (μM) T. brucei” value with T. brucei brucei is “trypanocidal in the low micromolar range”.
On to phenylahistin [Compound 2a], for which, in data set [2], the “cell cycle inhibition activity” value is given as “cell cycle inhibition activity in the G2/M phase”.
For `CN1C(=O)[C@]23SS[C@@]1(C)C(=O)N2[C@H]1Nc2ccccc2[C@@]1([C@@]12c4ccccc4N[C@@H]1N1C(=O)[C@]4(CO)SS[C@]1(C(=O)N4C)[C@H]2O)[C@@H]3O` [Compound 11, verticillin B], in data set [1] (setting [3]), the “IC50 (μM) Jurkat” value is “substantial toxicity to mammalian cells”. Also, in data set [1], the “Selectivity Index = (IC50 Jurkat) / (IC50 T. brucei)” value was “low (Toxic to Jurkat cells at <1 μM)”. For the same compound, the “IC50 (μM) T. brucei” value in the data set with T. brucei brucei is “nanomolar activity”.
With `CS[C@]1(CO)C(=O)N2[C@H]3C(=CC=C[C@@H]3O)C[C@@]2(SC)C(=O)N1C` [Compound 3, bis(methylthio)gliotoxin], the “IC50 (μM) Jurkat” value in data set [1] (setting [3]) is recorded as “not being toxic”. For the same compound, the “IC50 (μM) Cysteine Protease Tbc (TbcatB)” value against TbCatB was “inactivity”. Besides, on rhodesain, the “IC50 … (rhodesain)” value was “inactivity”.
`COc1ccc2c3c4n(c2c1)[C@H](C=C(C)C)OOC(C)(C)C[C@@H]4N1C(=O)[C@@H]2CCCN2C(=O)[C@]1(O)[C@H]3O` [Compound 17, verruculogen]: the tremors in animals result in the data set with animals is “cause tremors in animals”.
Take fumitremorgin B [Compound 19]: the “Selectivity Index = (IC50 Jurkat) / (IC50 T. brucei)” value in data set [1] was 5.3. The IC50 in data set [1] (setting [3]) is 104 µM; in the data set on T. brucei brucei (read-out: IC50 (μM) T. brucei), 19.5 ± 5.9 µM. In addition, in the data set on animals, the tremors in animals entry was “cause tremors in animals”.
As to `CS[C@]1(CO)C(=O)N2c3c(O)cccc3C[C@@]2(SC)C(=O)N1C` [Compound 4, dehydrobis(methylthio)gliotoxin], the “Selectivity Index = (IC50 Jurkat) / (IC50 T. brucei)” value in data set [1] is > 15. On rhodesain, the “IC50 … (rhodesain)” value is “binds to rhodesain”. Moreover, the “IC50 (μM) T. brucei” value with T. brucei brucei is given as “trypanocidal in the low micromolar range”.
`CS[C@]1(Cc2c[nH]c3ccccc23)NC(=O)[C@](CO)(SC)N(C)C1=O` [Compound 8, chetoseminudin B]: at TbCatB, the “IC50 (μM) Cysteine Protease Tbc (TbcatB)” value is “inactivity”. Further, the “IC50 … (rhodesain)” value against rhodesain is “inactivity”.
